Results reported in patent US4200629A, “Anti-fungal substance and preparing method thereof” (priority 1977, dated 1980).
Structures can show the parent of a compound that is named as a salt.

How the values were obtained:
[1] = system: Trichophyton mentagrophytes; experiment: inhibitory effect, antifungal test disk (Test Example 2); assay type: cell-based; details: 8 mm disk, 0.005 g active ingredient
Source text: (§1) Each test fungal liquid was mixed with a Sabouraud's agar medium containing 0.1% of Tween 80 to form a multilayered fungal agar film, which was then solidified.

Candida albicans = experiment: as above; assay type: cell-based; details: 8 mm disk, 0.005 g active ingredient
Source text: as §1

[2] = solubility in phosphate buffer solution
Aspergillus fumigatus = experiment: inhibitory effect, antifungal test disk (Test Example 2); assay type: cell-based; details: 8 mm disk, 0.005 g active ingredient
Source text: as §1

Cryptococcus neoformans = experiment: as above; assay type: cell-based; details: 8 mm disk, 0.005 g active ingredient
Source text: as §1

[3] = system: medical fungi (Aspergillus, Candida, Trichophyton); experiment: growth inhibition of fungi (general statements); assay type: cell-based
Method: Each of the components is separated and tested with respect to the activity of growth inhibition of Aspergillus fumigatus, Candida albicans and Trichophyton mentagrophytes, respectively, according to the disk method.
Using 0.01 ml. of the resulting solution, the growth inhibitory effect of each powder against fungi was tested according to the disk method.

[4] = acute toxicity, LD50 oral; details: mouse, in vivo, comparison with NT-72 orally in mice, source not stated

## C[C@@H]1[C@H](O)[C@@H](C)/C=C/C=C/C=C/C=C/C=C/C=C/C=C/[C@H](O[C@@H]2O[C@H](C)[C@@H](O)[C@H](N)[C@@H]2O)C[C@@H]2O[C@](O)(C[C@@H](O)C[C@@H](O)[C@H](O)CC[C@@H](O)C[C@@H](O)CC(=O)O[C@H]1C)C[C@H](O)[C@H]2C(=O)O [Amphotericin B]
[1]
  inhibitory circle diameter: 8.5 mm
Candida albicans
  inhibitory circle diameter: 11 mm
  inhibitory circle diameter (Trace): 14 mm

## Clc1ccccc1C(c1ccccc1)(c1ccccc1)n1ccnc1 [Byb 5097]
[2]
  solubility in the phosphate buffer solution: not sufficiently soluble
Aspergillus fumigatus
  inhibitory circle diameter: 12.5 mm
Aspergillus fumigatus; trace
  inhibitory circle diameter (Trace): 18 mm
[1]
  inhibitory circle diameter: 24 mm
Candida albicans
  inhibitory circle diameter: 17 mm
  inhibitory circle diameter (Trace): 22 mm
Cryptococcus neoformans; trace
  inhibitory circle diameter (Trace): 18 mm

## C[C@@H]1[C@H](O)[C@@H](C)/C=C/C=C/CC/C=C/C=C/C=C/C=C/C(O[C@H]2O[C@H](C)[C@@H](O)[C@H](N)[C@@H]2O)CC2O[C@](O)(CC(O)C(O)CCC(O)CC(O)CC(O)CC(=O)O[C@H]1C)CC(O)C2C(=O)O (some centres unmarked) [Nystatin]
[2]
  solubility in the phosphate buffer solution: not sufficiently soluble
Aspergillus fumigatus
  inhibitory circle diameter: 12 mm
[1]
  inhibitory circle diameter: 12.5 mm
Candida albicans
  inhibitory circle diameter: 21 mm
Cryptococcus neoformans
  inhibitory circle diameter: 11 mm

## COc1ccc2cc3[n+](cc2c1OC)CCc1cc2c(cc1-3)OCO2 [berberine hydrochloride]
[3]
  activity of butanol extract after sodium borohydride reduction: does not show the activity
[4]
  LD50: 60 to 70 mg/kg
